In publication PMC7650660, “Potential of Cell-Free Supernatant from Lactobacillus plantarum NIBR97, Including Novel Bacteriocins, as a Natural Alternative to Chemical Disinfectants” (Pharmaceuticals, 2020):
Values after ≈ are worked out from the molar mass of the structure shown. Peptide text beside a SMILES is read from it.

Key:
Salmonella Typhimurium = assay type: cell-based; settings: synthetic peptides against S. Typhimurium; Figure S3
Protocol: L. plantarum NIBR97 was incubated at 37 °C for 24 h in an MRS liquid medium (10 g/L peptone, 8 g/L meat extract, 4 g/L yeast extract, 20 g/L d(+)-glucose, 2 g/L dipotassium hydrogen phosphate, 5 g/L sodium acetate trihydrate, 2 g/L triammonium citrate, 0.2 g/L magnesium sulfate heptahydrate, and 0.05 g/L manganous sulfate tetrahydrate). The cultural broth was centrifuged for 20 min at 2000× g, and the centrifugal supernatant was collected and then sterilized by a 0.22 μm filtration. The sterilized fluid was either applied directly for the examination of antimicrobial activity or fractionated and stored at −80 °C until use. The assessment of antimicrobial activity on a microtiter plate was performed by some modification of the dilution assay of Wiegand et al.. The MIC50 and MIC90 were expressed as total proteins equivalent (μg) per volume (mL) of the sample, and the effect of proteinase K treatment was examined by a previously described procedure.
Figure 3. Antibacterial activity of synthetic Plantaricins identified from the L. plantarum NIBR97
genome. Pln 1, 2, 3, 4 and 5 were synthesized according to the amino acid sequences in Figure 3, and
further examined for their antibacterial activity against a Salmonella enterica serotype, S.
The Y axis in the graphs represents the relative growth of S. Typhimurium. […]

[1] = system: HEK-293T cells (human host cells); test: Cytotoxic effect on host cells (bright-field images) in the lentivirus test; assay type: cell-based; settings: lentiviruses treated with 5 μg/μL of synthetic peptides
Protocol: (A) For fluorescence microscopy, we treated GFP-labeled lentiviruses with the cell-free supernatant for 5 min and 24 h, and then were infected in HEK-293T human host cells. The 1× and 5× correspond to the concentrations treated to the lentiviruses, 79.15 and 395.75 μg total proteins/mL, respectively. The bright-field images (Bright) indicate the HEK-293T cells, and the green signals in the fluorescent images (GFP) represent the GFP-labeled lentiviruses. (B) For scanning electron microscopy, the GFP-labeled lentiviruses were treated without (a) or with the cell-free supernatant (395.75 μg total proteins/mL) (b) for 5 min.
Figure 5 Fluorescence micrographs of HEK-293T cells infected with GFP-labeled lentiviruses treated with synthetic Pln 3 and 5. The lentiviruses were treated without (control) or with the synthetic peptides (1 to 5 μg/μL) Pln 3 (A) and 5 (B) for 5 min or 24 h, and then the HEK-293T human host cells were infected. The bright-field images (Bright) indicate the HEK-293T cells, and the green signals in the fluorescent images (GFP) represent the GFP-labeled lentiviruses.
For the anti-viral test, we co-incubated 2 μL of lentivirus soup (2.8 × 10^6 lentiviruses/μL) with 2 μL of test sample for 5 min and 24 h at 25 °C. After the co-incubation, 2 μL from the total 4 μL of the test sample–lentivirus mixture was infected in HEK-293T cells (1 × 10^4 cells per well).

CC[C@H](C)[C@H](NC(=O)CNC(=O)[C@@H](NC(=O)[C@H](C)NC(=O)[C@H](CCSC)NC(=O)[C@H](C)NC(=O)[C@H](CCCCN)NC(=O)[C@H](Cc1ccccc1)NC(=O)[C@@H]1CCCN1C(=O)[C@H](CCC(=O)O)NC(=O)[C@H](CCCNC(=N)N)NC(=O)[C@@H](NC(=O)[C@@H](NC(=O)[C@@H]1CCCN1)[C@@H](C)CC)C(C)C)C(C)C)C(=O)N[C@H](C(=O)N[C@@H](CC(C)C)C(=O)N[C@@H](C)C(=O)N[C@H](C(=O)N[C@@H](CCSC)C(=O)N[C@@H](CO)C(=O)NCC(=O)N[C@@H](CC(C)C)C(=O)N[C@@H](CC(C)C)C(=O)N[C@H](C(=O)N[C@H](C(=O)O)[C@@H](C)O)C(C)C)C(C)C)[C@@H](C)CC [Pln 4] (H-PIVREPFKAMAVGIILAVMSGLLVT-OH)
MIC50 (Salmonella Typhimurium): 5650 µg/mL (≈ 2150 µM)

CSCC[C@H](NC(=O)CNC(=O)[C@@H](NC(=O)[C@@H]1CCCN1C(=O)[C@H](CCSC)NC(=O)CNC(=O)[C@H](CC(N)=O)NC(=O)[C@H](CC(N)=O)NC(=O)[C@H](Cc1ccc(O)cc1)NC(=O)[C@@H](NC(=O)[C@H](CCC(N)=O)NC(=O)[C@H](CS)NC(=O)[C@H](CCCNC(=N)N)NC(=O)[C@H](CCCNC(=N)N)NC(=O)[C@H](CO)NC(=O)[C@H](CCCCN)NC(=O)[C@@H](N)CCCCN)C(C)C)[C@@H](C)O)C(=O)N[C@@H](Cc1ccc(O)cc1)C(=O)N[C@H](C(=O)N[C@@H](CO)C(=O)N[C@@H](CS)C(=O)O)[C@@H](C)O [Pln 3] (H-KKSRRCQVYNNGMPTGMYTSC-OH)
cytotoxicity on the human host cells [1]: exhibited a cytotoxicity on the human host cells
MIC50 (Salmonella Typhimurium): 5170 µg/mL (≈ 2130 µM)

CC[C@H](C)[C@H](N)C(=O)N[C@@H](Cc1ccc(O)cc1)C(=O)N1CCC[C@H]1C(=O)N[C@@H](CCC(=O)O)C(=O)N[C@@H](CCCCN)C(=O)N[C@@H](CCC(N)=O)C(=O)N1CCC[C@H]1C(=O)N[C@@H](CCC(=O)O)C(=O)N[C@@H](CCC(=O)O)C(=O)N1CCC[C@H]1C(=O)N[C@H](C(=O)N[C@@H](CCCNC(=N)N)C(=O)N[C@@H](CCCNC(=N)N)C(=O)O)C(C)C [Pln 2] (H-IYPEKQPEEPVRR-OH)
MIC50 (Salmonella Typhimurium): 4840 µg/mL (≈ 2950 µM)

CC[C@H](C)[C@H](NC(=O)CNC(=O)[C@@H](NC(=O)[C@H](CO)NC(=O)CNC(=O)[C@@H](NC(=O)[C@H](CC(C)C)NC(=O)[C@H](CO)NC(=O)CNC(=O)[C@H](CC(C)C)NC(=O)[C@@H](N)C(C)C)[C@@H](C)CC)C(C)C)C(=O)NCC(=O)N[C@H](C(=O)N[C@@H](CC(C)C)C(=O)N[C@@H](CO)C(=O)N[C@@H](CO)C(=O)N[C@@H](CC(C)C)C(=O)N[C@@H](C)C(=O)N[C@@H](C)C(=O)N[C@@H](CCCNC(=N)N)C(=O)N[C@@H](Cc1ccc(O)cc1)C(=O)N[C@@H](CCCCN)C(=O)O)C(C)C [Pln 1] (H-VLGSLIGSVGIGVLSSLAARYK-OH)
MIC50 (Salmonella Typhimurium): 5480 µg/mL (≈ 2540 µM)

CC(C)C[C@H](NC(=O)[C@H](CCCNC(=N)N)NC(=O)[C@H](CC(N)=O)NC(=O)[C@H](CCCNC(=N)N)NC(=O)[C@H](CC(C)C)NC(=O)[C@H](Cc1ccccc1)NC(=O)[C@H](CCCNC(=N)N)NC(=O)[C@H](CCCCN)NC(=O)[C@H](CCCCN)NC(=O)[C@H](C)NC(=O)[C@@H](N)CCCCN)C(=O)N[C@@H](CO)C(=O)N[C@@H](CCC(N)=O)C(=O)N[C@@H](CCC(N)=O)C(=O)N[C@@H](C)C(=O)N[C@@H](CCCNC(=N)N)C(=O)N[C@@H](CCCCN)C(=O)N[C@@H](C)C(=O)N[C@@H](CCCNC(=N)N)C(=O)N[C@H](C(=O)N[C@@H](CCCCN)C(=O)O)[C@@H](C)O [Pln 5] (H-KAKKRFLRNRLSQQARKARTK-OH)
cytotoxicity on the human host cells [1]: exhibited a cytotoxicity on the human host cells
MIC50 (Salmonella Typhimurium): 4450 µg/mL (≈ 1720 µM)
